The values that follow are results of earlier work, collected in patent US20190154648A1, “METHODS OF ATTENUATING DRUG EXCIPIENT CROSS REACTIVITY” (Chesapeake Therapeutics, LLC, priority 2016, published 2019).

Counter-ions that a name gives are not always drawn.

Series [1] deals with nonhuman primates.
The conditions of series [2]: in vivo.

With `OCCOCCN1CCN(C2=Nc3ccccc3Sc3ccccc32)CC1` [quetiapine fumarate], the “mechanistically unexplainable side effects in repeat-dose toxicity studies” value in series [1] is “pigmentation of the thyroid, transient increases in heart rate, posterior triangular cataracts, and reduced lymphocyte count”. In addition, the single-dose toxicity result in series [2] was “low”.
